# From article PMC8537658 (Pharmaceuticals, 2021)
# Like-named read-outs stand apart in the source and are kept apart here.
# How the values were obtained:
# SARS-CoV-2 RBD peptide = SARS-CoV-2 RBD peptide (Severe acute respiratory syndrome coronavirus 2, UniProt P0DTC2); assay: biochemical; type: binding; conditions: for koff: read-out: RBD kdis; for kon: read-out: RBD kon
# ACE2 = molecular target: T1, ACE2 (Homo sapiens, UniProt Q9BYF1); assay: Bio-layer interferometry, binding to immobilized ACE2-His; conditions: for koff: read-out: ACE2 kdis; for kon: read-out: ACE2 kon; for Kd: 1:1 binding model, KD = kdis/kon
# T1 construct: purchased Sino Biological
# T1 sequence (Q9BYF1 18-805): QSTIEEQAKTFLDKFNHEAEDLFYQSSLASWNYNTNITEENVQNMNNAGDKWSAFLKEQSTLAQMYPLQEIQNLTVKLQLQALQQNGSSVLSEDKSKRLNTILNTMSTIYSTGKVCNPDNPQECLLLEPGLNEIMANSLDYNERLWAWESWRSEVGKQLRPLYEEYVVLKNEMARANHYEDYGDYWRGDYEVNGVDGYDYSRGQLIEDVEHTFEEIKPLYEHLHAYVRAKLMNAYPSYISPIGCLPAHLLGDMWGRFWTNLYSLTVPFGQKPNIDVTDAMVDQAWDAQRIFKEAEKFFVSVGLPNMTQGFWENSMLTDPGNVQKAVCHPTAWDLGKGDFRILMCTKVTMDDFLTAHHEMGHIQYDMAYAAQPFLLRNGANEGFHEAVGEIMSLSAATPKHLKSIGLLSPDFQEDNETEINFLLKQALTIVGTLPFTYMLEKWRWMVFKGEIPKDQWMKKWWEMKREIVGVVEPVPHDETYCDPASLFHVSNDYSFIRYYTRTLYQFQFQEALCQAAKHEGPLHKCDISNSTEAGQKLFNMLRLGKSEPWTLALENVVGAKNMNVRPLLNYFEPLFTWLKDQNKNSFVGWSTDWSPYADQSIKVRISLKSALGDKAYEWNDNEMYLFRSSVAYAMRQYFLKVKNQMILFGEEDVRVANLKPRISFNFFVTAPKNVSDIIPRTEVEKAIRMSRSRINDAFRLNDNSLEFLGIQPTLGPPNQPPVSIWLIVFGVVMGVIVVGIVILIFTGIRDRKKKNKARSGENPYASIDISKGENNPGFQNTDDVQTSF
# binding of RBD to ACE2 = binding of RBD to ACE2 (Severe acute respiratory syndrome coronavirus 2, UniProt P0DTC2); assay: biochemical; parameters: species or system SARS-CoV-2; human
# [1] = association rate, bio-layer interferometry
# [2] = dissociation rate, bio-layer interferometry
SMILES,interaction with the RBD (result in words) (SARS-CoV-2 RBD peptide),koff (ACE2),kon (ACE2),Kd (SARS-CoV-2 RBD peptide; RBD KD (M)),koff (SARS-CoV-2 RBD peptide),kon (SARS-CoV-2 RBD peptide),Kd (ACE2; bio-layer interferometry),kon (ACE2; [1]),koff (ACE2; [2]),Kd (SARS-CoV-2 RBD peptide; KD for RBD),IC50 (binding of RBD to ACE2)
C[C@H]1[C@H](OC(=O)CCC(=O)O)O[C@@H]2O[C@@]3(C)CC[C@H]4[C@H](C)CC[C@@H]1[C@@]24OO3 [Artesunate],No interaction,0.0907 s⁻¹,1290 M⁻¹ s⁻¹,–,–,–,–,–,–,–,–
OC(c1cc(C(F)(F)F)nc2c(C(F)(F)F)cccc12)C1CCCCN1 (stereo not shown) [Mefloquine],–,0.0312 s⁻¹,716 M⁻¹ s⁻¹,0.00605 M,0.861 s⁻¹,142 M⁻¹ s⁻¹,–,–,–,–,–
CN(C)c1ccc2nc3ccc(=[N+](C)C)cc-3sc2c1 [Methylene blue],–,–,–,–,–,–,475 µM,–,–,–,–
COc1cc(/C=C/C(=O)CC(=O)/C=C/c2ccc(O)c(OC)c2)ccc1O [Curcumin],No interaction,–,–,–,–,–,20.3 µM,600 M⁻¹ s⁻¹,0.0122 s⁻¹,–,–
C[C@H]1[C@H](N2CCS(=O)(=O)CC2)O[C@@H]2O[C@@]3(C)CC[C@H]4[C@H](C)CC[C@@H]1[C@@]24OO3 [Artemisone],–,–,–,3.63e-07 M,–,8.4e+07 M⁻¹ s⁻¹,681 µM,971 M⁻¹ s⁻¹,0.661 s⁻¹,3.6e-07 M,63.1 ± 9.63 µM
C=C[C@H]1C[N@@]2CC[C@H]1C[C@H]2[C@H](O)c1ccnc2ccc(OC)cc12 [Quinine],No interaction,–,–,–,–,–,9.35 µM,877 M⁻¹ s⁻¹,0.00819 s⁻¹,–,–
COc1ccc2nc3cc(Cl)ccc3c(Nc3cc(CN4CCCC4)c(O)c(CN4CCCC4)c3)c2n1 [Pyronaridine],–,–,–,5.68e-05 M,0.0339 s⁻¹,598 M⁻¹ s⁻¹,51.3 µM,584 M⁻¹ s⁻¹,0.0299 s⁻¹,5.7e-05 M,49.7 ± 4.19 µM
C[C@H]1[C@H](N2CCSCC2)O[C@@H]2O[C@@]3(C)CC[C@H]4[C@H](C)CC[C@@H]1[C@@]24OO3 [Artemiside],No interaction,–,–,–,–,–,124 µM,4290 M⁻¹ s⁻¹,0.533 s⁻¹,–,–
CCN(CC)Cc1cc(Nc2ccnc3cc(Cl)ccc23)ccc1O [Amodiaquine],–,–,–,–,–,–,31.3 µM,–,–,–,–
